How the values were obtained:
MDA-MB-231 cells = test: Wound healing assay (cancer cell movement); format: cell-based, human
Description: (§1) In order to evaluate the cytotoxicity of the compound 1-1 according to the present invention, MTT assay was performed on a human breast cancer cell line (MDA-MB-231). Cells used in the experiment were all purchased from the American Type Culture Collection (ATCC). First, 1×10^5 MDA-MB-231 cells were divided into 200 vL of 5×10^3 cells in a 96-well plate using a DMEM medium added with 10% fetal bovine serum (FBS), […] and 50 U/ml penicillin while maintained at 37° C. under 5% CO2 air, and then incubated in a CO2 incubator for 24 hours. The purchased compound 1-1 of the present invention was treated at a concentration of 50 vM and incubated for 24 hours under the same culture conditions. After the incubation was completed, the culture medium was removed and 50 vL of 10 mg/mL MTT solution [3-(4,5-dimethylthiazol-2-yl)-2,5-diphenyltetrazolium bromide] (Sigma, St. Louis, MO, USA) was added per well and reacted at 37° C. for 4 hours. Subsequently, a supernatant was removed carefully so as to […] formazan crystals at the bottom, and 50 μL of dimethyl sulfoxide (DMSO) was added per well, and then shaken for 10 minutes, and an optical density (OD) at 590 nm was measured. […] The number of moved cells was quantified using an optical microscope (×100). […]

[1] = mouse liver metabolic stability assay; format: in vitro ADME
CSE1L = biological target: T1, CSE1L (Homo sapiens, UniProt P55060); test: thermal shift assay (TSA) in cells, remaining CSE1L by Western blot; format: binding; conditions: cells treated 10 vM, 24 hours; 42-60° C. for 5 minutes; vs DMSO
T1 construct: endogenous in cells
T1 sequence (P55060 1-971): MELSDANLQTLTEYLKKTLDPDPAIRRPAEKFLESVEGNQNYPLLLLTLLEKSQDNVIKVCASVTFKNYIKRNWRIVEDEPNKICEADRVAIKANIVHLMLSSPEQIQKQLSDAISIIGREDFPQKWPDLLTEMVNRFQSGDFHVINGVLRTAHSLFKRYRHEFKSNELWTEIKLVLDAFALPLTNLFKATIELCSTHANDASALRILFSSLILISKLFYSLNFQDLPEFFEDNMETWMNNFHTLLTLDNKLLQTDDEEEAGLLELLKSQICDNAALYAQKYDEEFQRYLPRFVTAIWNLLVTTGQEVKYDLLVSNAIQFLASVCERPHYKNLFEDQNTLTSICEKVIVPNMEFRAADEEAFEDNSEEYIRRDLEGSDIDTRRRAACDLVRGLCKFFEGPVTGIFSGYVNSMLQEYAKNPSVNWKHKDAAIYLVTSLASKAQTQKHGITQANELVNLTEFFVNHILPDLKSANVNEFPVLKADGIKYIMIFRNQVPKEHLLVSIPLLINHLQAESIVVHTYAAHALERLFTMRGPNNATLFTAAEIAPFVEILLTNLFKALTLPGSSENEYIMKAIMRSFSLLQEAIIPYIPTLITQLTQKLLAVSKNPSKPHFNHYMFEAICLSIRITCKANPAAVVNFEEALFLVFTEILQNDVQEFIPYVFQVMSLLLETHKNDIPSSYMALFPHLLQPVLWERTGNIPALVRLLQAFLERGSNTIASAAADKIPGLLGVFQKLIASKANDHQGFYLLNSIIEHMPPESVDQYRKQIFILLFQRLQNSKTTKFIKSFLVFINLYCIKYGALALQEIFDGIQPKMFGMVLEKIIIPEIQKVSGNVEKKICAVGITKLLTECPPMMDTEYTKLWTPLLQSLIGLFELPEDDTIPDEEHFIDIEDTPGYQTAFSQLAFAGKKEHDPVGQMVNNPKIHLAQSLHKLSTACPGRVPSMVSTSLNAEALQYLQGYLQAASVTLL
Text: A CSE1L protein was known as nuclear exportin 2, a type of nuclear exportin that played a role in moving importin-α from the intra-nucleus to the cytoplasm as a cargo protein of nuclear transport (Solsbacher, J.; Maurer, P.; Bischoff, F. R.; Schlenstedt, G. Mol. Cell. Biol. 1998, 18, 6805.). In general, importin-α and Ran-GTP, which were cargo proteins, bound to exportin CSE1L in the nucleus and transported to the cytoplasm through nuclear pores, and the obtained CSE1L-bound Ran-GTP protein was rapidly hydrolyzed to Ran GDP to have the form of a cargo free state (a state in which importin-ax was not bound). Through this series of processes, the protein played a role of substance transport. As another function, the CSE1L protein was particularly abundant in cancer cells or tissues, and reported to have roles and functions in metastasis, such as carcinogenesis, cancer cell movement, and cancer cell invasion, but since the exact mechanism has not been reported yet, it was intended to predict the interaction with a novel metastasis-targeting protein (CSE1L) and develop effective substances using molecular modeling tools. Based on a binding site of the previously identified fusarisetin compound and the target protein (CSE1L), a virtual search was conducted using about 1.5 million compound libraries (commercial focused libraries) to predict combinable compounds. […]

[2] = system: mouse breast cancer cell line 4T1; test: orthotopic xenograft spontaneous metastasis mouse model (metastatic breast cancer); format: in vivo
Text: In order to test a metastasis-inhibiting effect of the compound 1-1, which was a CSE1L inhibiting compound, in a mouse model, the metastasis-inhibiting effect was confirmed using an orthotopic xenograft spontaneous metastasis model. First, a method of examining metastasis of cancer formed by subcutaneous transplantation of mouse breast cancer cell line 4T1 (murine breast cancer cell) to other tissues was used. Female 6-week-old nude mice (BALB/c) were used. To make solid cancer, the mouse breast cancer cell line 4T1 (1×10^5 murine breast cancer cells) was transplanted into the 4th Mammary Fat Pad of the mouse, and from 5 days later, the compound 1-1 was treated at 10 mg/kg and 50 mg/kg every day for 3 weeks, respectively. […] In addition, after 25 days, the mice were autopsied to confirm the number of cancer cells metastasizing to the lung. […] Through the evaluation of anti-metastasis efficacy using the metastasis breast cancer model, the metastasis-inhibiting efficacy of the compound 1-1 was confirmed through selective regulation of the CSE1L function by binding to the target protein CSE1L. Accordingly, a novel derivative was synthesized in order to secure a substance showing better activity than these substances.

MDA-MB-231 cell lines = test: transwell Matrigel invasion chamber assay; format: cell-based, human; conditions: MDA-MB-231, 10 and 20 vM, 20 hours, compared to control group
Description: as §1

[3] = system: human breast cancer cell line (MDA-MB-231); test: MTT cytotoxicity assay; format: cell-based
Description: as §1

cancer cells = test: real-time cell movement with Holomonitor device; format: cell-based
angiogenesis = test: chorioallantoic membrane (CAM) angiogenesis assay; format: in vivo; conditions: fertilized egg, 4 μg
Description: In order to confirm whether angiogenesis was inhibited using the compound 1-46, which had high stability in vivo, among methylsulfonamide-based derivative compounds discovered as CSE1L inhibitors, a chorioallantoin membrane (CAM) was performed. First, the surface of the fertilized viable egg was wiped with 70% ethanol, incubated at 37° C. for 4 days, and 3 ml of albumin of the viable egg was extracted and then treated with the compound 1-46 at a concentration of 4 μg, and then it was observed whether angiogenesis was inhibited.

Row | metabolic stability [1] | Structure (SMILES) | cell movement of cancer cell line (wound healing) (MDA-MB-231 cells; MDA-MB-231, 10 and 20 μM, 24 hours, compared to control group) | amount of remaining CSE1L after heating (thermal stabilization) (CSE1L) | change in body weight (toxicity) ([2]; 10 mg/kg and 50 mg/kg every day for 3 weeks, compared to negative control group) | formation of cancer tissue in other organs (metastasis, bioluminescence) ([2]; 10 mg/kg and 50 mg/kg every day, vs control group) | volume and capacity of the tumors ([2]; 10 mg/kg and 50 mg/kg, drug treatment period (16 to 24 days)) | number of cancer cells metastasizing to the lung ([2]; autopsy after 25 days, compared to control group) | number of invaded cancer cells (MDA-MB-231 cell lines) | cytotoxicity (MTT) ([3]; MDA-MB-231, 50 vM, 24 hours) | invasion and movement of cancer cells in real time (cancer cells) | cell movement of cancer cell line (wound healing) (MDA-MB-231 cells; MDA-MB-231, compared to control group, concentration not given) | angiogenesis inhibitory activity (angiogenesis) | cytotoxicity (MTT) ([3]; MDA-MB-231, 10 to 100 vM)
1 | 82.2% | NC(=O)CN(c1ccc(C(F)(F)F)cc1)S(=O)(=O)CC(F)(F)F [Compound 1-45] |  |  |  |  |  |  |  |  |  |  |  | 
2 | 91.4% | NC(=O)CN(c1ccc(C(F)(F)F)cc1)S(=O)(=O)CCC(F)(F)F [Compound 1-46] |  |  |  |  |  |  | significantly reduced |  |  | significantly reduced | excellent angiogenesis inhibitory activity | no cytotoxicity

Row | Structure (SMILES) | metabolic stability [1] | cell movement of cancer cell line (wound healing) (MDA-MB-231 cells; MDA-MB-231, 10 and 20 μM, 24 hours, compared to control group) | amount of remaining CSE1L after heating (thermal stabilization) (CSE1L) | change in body weight (toxicity) ([2]; 10 mg/kg and 50 mg/kg every day for 3 weeks, compared to negative control group) | formation of cancer tissue in other organs (metastasis, bioluminescence) ([2]; 10 mg/kg and 50 mg/kg every day, vs control group) | volume and capacity of the tumors ([2]; 10 mg/kg and 50 mg/kg, drug treatment period (16 to 24 days)) | number of cancer cells metastasizing to the lung ([2]; autopsy after 25 days, compared to control group) | number of invaded cancer cells (MDA-MB-231 cell lines) | cytotoxicity (MTT) ([3]; MDA-MB-231, 50 vM, 24 hours) | invasion and movement of cancer cells in real time (cancer cells) | cell movement of cancer cell line (wound healing) (MDA-MB-231 cells; MDA-MB-231, compared to control group, concentration not given) | angiogenesis inhibitory activity (angiogenesis) | cytotoxicity (MTT) ([3]; MDA-MB-231, 10 to 100 vM)
3 | CS(=O)(=O)N(CC(N)=O)c1ccc(C(Cl)(Cl)Cl)cc1 [Compound 1-1, 2-[N-methylsulfonyl-4-(trichloromethyl)anilino]acetamide] | 89.8% | significantly reduced | not reduced, but continuously maintained through structural stabilization | no change in body weight | showed a tendency to inhibit the formation of cancer tissue in other organs | not suppressed | significantly reduced | significantly reduced | no cytotoxicity | inhibited the invasion and movement of cancer cells |  |  | 
